US11827628B2, “Compositions and methods for inhibition of the JAK pathway” (Rigel Pharmaceuticals, Inc., priority 2005, dated 2023)

test system: up-regulation of ICAM-1 (CD54) by IFNγ in U937 human monocytic cells; experiment: U937 IFNγ ICAM1 FACS Assay; assay type: cell-based; details: Homo sapiens, U-937, U937 cells stimulated with IFNγ, ICAM-1 expression by FACS; read-out: IC50, Example 44
Method in brief: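 U937 cells in 10% FCS RPMI were preincubated 30 min at 37 °C with an 8-point, 3-fold compound dilution series in duplicate, then stimulated with IFNγ for 18–24 h. Surface ICAM-1 was stained with APC anti-ICAM-1 and read by flow cytometry as geometric mean on live-gated cells. EC50 was derived.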

Work on `NS(=O)(=O)c1cccc(Nc2ncc(F)c(Nc3ccc(Cc4ccncc4)cc3)n2)c1` [III-70, N2-(3-Aminosulfonylphenyl)-5-fluoro-N4-[4-(4-pyridinylmethyl)phenyl]-2,4-pyrimidinediamine] yielded an IC50 of 1.65 µM.

same assay, conditions: U937 cells stimulated with IFNγ; ICAM-1 expression by FACS; read-out: IC50, Example 44

First: Cc1cc(COc2ccc(Nc3nc(Nc4cc(C)c(F)c(S(N)(=O)=O)c4)ncc3F)cc2F)no1 [Compound I-224, N2-(3-Aminosulfonyl-4-fluoro-5-methylphenyl)-5-fluoro-N4-[3-fluoro-4-(5-methylisoxazol-3-yl)methyleneoxyphenyl]-2,4-pyrimidinediamine]
Second: Cc1cc(COc2ccc(Nc3nc(Nc4ccc(C)c(S(N)(=O)=O)c4)ncc3F)cc2F)no1 [Compound I-222, N2-(3-Aminosulfonyl-4-methylphenyl)-5-fluoro-N4-[3-fluoro-4-(5-methylisoxazol-3-yl)methyleneoxyphenyl]-2,4-pyrimidinediamine]
The IC50 of the first is 1.7-fold lower: 0.494 µM for the first, 0.84 µM for the second. The first is the more potent here.

`Cc1cc(COc2ccc(Nc3nc(Nc4cc(C)c(F)c(S(N)(=O)=O)c4)ncc3F)cc2)no1` [Compound I-217, N2-(3-Aminosulfonyl-4-fluoro-5-methylphenyl)-5-fluoro-N4-[4-(5-methylisoxazol-3-yl)methyleneoxyphenyl]-2,4-pyrimidinediamine] and `Cc1cc(COc2ccc(Nc3nc(Nc4ccc(C)c(S(N)(=O)=O)c4)ncc3F)cc2)no1` [Compound I-219, N2-(3-Aminosulfonyl-4-methylphenyl)-5-fluoro-N4-[4-(5-methylisoxazol-3-yl)methyleneoxyphenyl]-2,4-pyrimidinediamine] are within 1.5-fold of each other in IC50: 0.479 µM for the first, 0.588 µM for the second.

Going from `Cc1nc(COc2ccc(Nc3nc(Nc4cccc(S(N)(=O)=O)c4)ncc3F)cc2)no1` [Compound I-276, N2-(3-Aminosulfonyl)phenyl-5-fluoro-N4-[4-(5-methyl-1,2,4-oxadiazol-3-yl)methoxy]phenyl-2,4-pyrimidinediamine] to `Cc1nc(COc2ccc(Nc3nc(Nc4ccc(S(N)(=O)=O)cc4)ncc3F)cc2)no1` [Compound I-275, N2-(4-Aminosulfonyl)phenyl-5-fluoro-N4-[4-(5-methyl-1,2,4-oxadiazol-3-yl)methoxy]phenyl-2,4-pyrimidinediamine], the IC50 rises from 0.822 µM to 1.9 µM (2.3-fold).

First: CNS(=O)(=O)c1cc(Nc2ncc(F)c(Nc3ccc(OCc4csc(C)n4)cc3)n2)ccc1C [Compound I-282, 5-Fluoro-N2-[3-(N-methylaminosulfony)-4-methylphenyl]-N4-[4-(2-methylthiazol-4-yl)methyleneoxyphenyl]-2,4-pyrimidinediamine]
Second: Cc1nc(COc2ccc(Nc3nc(Nc4ccc(C)c(S(N)(=O)=O)c4)ncc3F)cc2)cs1 [Compound I-280, N2-(3-Aminosulfonyl-4-methylphenyl)-5-fluoro-N4-[4-(2-methylthiazol-4-yl)methyleneoxyphenyl]-2,4-pyrimidinediamine]
The IC50 of the first is 2.1-fold higher: 3.1 µM for the first, 1.46 µM for the second. The second is the more potent here.

Compared with `Cc1ccc(Nc2ncc(C)c(Nc3ccc(CCC#N)cc3)n2)cc1S(N)(=O)=O` [III-11], `Cc1ccc(Nc2ncc(F)c(Nc3ccc(CCC#N)cc3)n2)cc1S(N)(=O)=O` [III-15, N2-(3-Aminosulfonyl-4-methylphenyl)-N4-[4-(cyanoethylene)phenyl]-5-fluoro-2,4-pyrimidinediamine] is 3.3-fold higher in IC50: 0.168 µM for the first, 0.553 µM for the second.

First: Cc1noc(COc2ccc(Nc3nc(Nc4ccc(S(N)(=O)=O)cc4)ncc3F)cc2)n1 [Compound I-231, N2-(4-Aminosulfonylphenyl)-5-fluoro-N4-[4-(3-methyl-1,2,4-oxadiazol-5-yl)methyleneoxyphenyl]-2,4-pyrimidinediamine]
Second: CNS(=O)(=O)c1cc(Nc2ncc(F)c(Nc3ccc(OCc4nc(C)no4)cc3)n2)ccc1C [Compound I-260, 5-Fluoro-N2-[3-N-(methyl)aminosulfonyl-4-methylphenyl)-N4-[4-(3-methyl-1,2,4-oxadiazol-5-yl)methyleneoxyphenyl]-2,4-pyrimidinediamine]
The IC50 of the first is 8.5-fold higher: 8.4 µM for the first, 0.985 µM for the second.

Compared with `COc1cc(Nc2ncc(F)c(Nc3cc(C)c(OCC#N)c(C)c3)n2)ccc1S(N)(=O)=O` [Compound I-32, N2-(4-Aminosulfonyl-3-methoxy)phenyl-N4-(4-cyanomethoxy-3,5-dimethyl)phenyl-5-fluoro-2,4-pyrimidinediamine], `Cc1cc(Nc2nc(Nc3cccc(S(N)(=O)=O)c3)ncc2F)cc(C)c1OCC#N` [Compound I-26, N2-(3-Aminosulfonyl)phenyl-N4-(4-cyanomethoxy-3,5-dimethyl)phenyl-5-fluoro-2,4-pyrimidinediamine] is 4.6-fold lower in IC50: 1.97 µM for the first, 0.424 µM for the second.

Going from `CCN(CC)CCNS(=O)(=O)c1ccc(Nc2ncc(F)c(Nc3ccc(OCc4csc(C)n4)cc3)n2)cc1` [Compound I-284, N2-[4-(2-N,N-Diethylaminoethyl)aminosulfonylphenyl)-5-fluoro-N4-[4-(2-methylthizol-4-yl)methyleneoxyphenyl]-2,4-pyrimidinediamine] to `CCN(CC)CCNS(=O)(=O)c1cccc(Nc2ncc(F)c(Nc3ccc(OCc4csc(C)n4)cc3)n2)c1` [Compound I-283, N2-[3-(2-N,N-Diethylaminoethyl)aminosulfonylphenyl)-5-fluoro-N4-[4-(2-methylthizol-4-yl)methyleneoxyphenyl]-2,4-pyrimidinediamine], the IC50 rises from 1.55 µM to 2.94 µM (1.9-fold). The first is the more potent here.

`Cc1cc(COc2ccc(Nc3nc(Nc4ccc(F)c(S(N)(=O)=O)c4)ncc3F)cc2C)no1` [Compound I-237, N2-(3-Aminosulfonyl-4-fluorophenyl)-5-fluoro-N4-[3methyl-4-(5-methylisoxazol-3-yl)methyleneoxyphenyl]-2,4-pyrimidinediamine] and `Cc1cc(COc2ccc(Nc3nc(Nc4ccc(C)c(S(N)(=O)=O)c4)ncc3F)cc2Cl)no1` [Compound I-221, N2-(3-Aminosulfonyl-4-methylphenyl)-N4-[3-chloro-4-(5-methylisoxazol-3-yl)methyleneoxyphenyl]-5-fluoro-2,4-pyrimidinediamine] are within 1.5-fold of each other in IC50: 3.58 µM for the first, 4.44 µM for the second.

`CNS(=O)(=O)c1cc(Nc2ncc(F)c(Nc3ccc(CC#N)cc3)n2)ccc1C` [III-1, 5-Fluoro-N2-[3-(N-methylaminosulfony)-4-methylphenyl]-5-fluoro-N4-(4-cyanomethylphenyl)-2,4-pyrimidinediamine] and `Cc1ccc(Nc2ncc(F)c(Nc3ccc(CC#N)cc3)n2)cc1S(N)(=O)=O` [III-7, N2-(3-Aminosulfonyl-4-methyl)phenyl-N4-(4-cyanomethyl)phenyl-5-fluoro-2,4-pyrimidinediamine] are within 1.5-fold of each other in IC50: 1.12 µM for the first, 1.09 µM for the second.

Going from `Cc1cc(Nc2nc(Nc3ccc(C)c(S(N)(=O)=O)c3)ncc2F)ccc1OCC#N` [Compound I-24, N2-(3-Aminosulfonyl-4-methyl)phenyl-N4-(4-cyanomethoxy-3-methyl)phenyl-5-fluoro-2,4-pyrimidinediamine] to `COc1cc(Nc2ncc(F)c(Nc3ccc(OCC#N)cc3)n2)ccc1S(N)(=O)=O` [Compound I-28, N2-(4-Aminosulfonyl-3-methoxyphenyl)-N4-(4-cyanomethoxy)phenyl-5-fluoro-2,4-pyrimidinediamine], the IC50 rises from 1.04 µM to 1.89 µM (1.8-fold).

First: Cc1ccc(Nc2ncc(F)c(Nc3ccc(OC4CCN(C)C4)cc3)n2)cc1S(N)(=O)=O (stereo not drawn) [II-10, N2-(3-Aminosulfonyl-4-methylphenyl)-5-fluoro-N4-(N-methylpyrrolidin-3-yloxyphenyl)-2,4-pyrimidinediamine]
Second: CNS(=O)(=O)c1cc(Nc2ncc(F)c(Nc3ccc(OCc4cc(C)on4)cc3)n2)ccc1C [Compound I-235, 5-Fluoro-N2-[3-(N-methyl)aminosulfonyl-4-methylphenyl]-N4-[4-(5-methylisoxazol-3-yl)methyleneoxyphenyl]-2,4-pyrimidinediamine]
The IC50 of the first is 1.8-fold lower: 1.4 µM for the first, 2.56 µM for the second.

First: N#CCCc1ccc(Nc2nc(Nc3ccc(F)c(S(N)(=O)=O)c3)ncc2F)cc1 [III-16, N2-(3-Aminosulfonyl-4-fluorophenyl)-N4-[4-(cyanoethylene)phenyl]-5-fluoro-2,4-pyrimidinediamine]
Second: COc1cc(Nc2ncc(F)c(Nc3ccc(CC#N)cc3)n2)ccc1S(N)(=O)=O [III-9, N2-(4-Aminosulfonyl-3-methoxy)phenyl-N4-(4-cyanomethyl)phenyl-5-fluoro-2,4-pyrimidinediamine]
The IC50 of the first is 3.9-fold lower: 1.8 µM for the first, 6.98 µM for the second.

First: Cc1cnc(Nc2ccc(S(N)(=O)=O)cc2)nc1Nc1ccc(CCC#N)cc1 [III-27, N2-(4-Aminosulfonylphenyl)-N4-(4-cyanoethylenephenyl)-5-methyl-2,4-pyrimidinediamine]
Second: CCN(CC)CCNS(=O)(=O)c1ccc(Nc2ncc(F)c(Nc3ccc(CC#N)cc3)n2)cc1 [III-2, N2-[4-(2-N,N-Diethylaminoethyl)aminosulfonylphenyl)-5-fluoro-N4-(4-cyanomethylphenyl)-2,4-pyrimidinediamine]
The IC50 of the first is 26-fold lower: 0.257 µM for the first, 6.72 µM for the second. The first is the more potent here.

Compared with `Cc1nnc(COc2ccc(Nc3nc(Nc4cccc(S(N)(=O)=O)c4)ncc3F)cc2)o1` [Compound I-277, N2-(3-aminosulfonylphenyl)-5-fluoro-N4-[4-(5-methyl-1,3,4-oxadiazol-2-yl)methyleneoxyphenyl]-2,4-pyrimidinediamine], `Cc1noc(COc2cccc(Nc3nc(Nc4cccc(S(N)(=O)=O)c4)ncc3F)c2)n1` [Compound I-252, N2-(3-Aminosulfonylphenyl)-5-fluoro-N4-[3-(3-methyl-1,2,4-oxadiazol-5-yl)methyleneoxyphenyl]-2,4-pyrimidinediamine] is 1.7-fold higher in IC50: 1.47 µM for the first, 2.47 µM for the second.

Going from `CCN(CC)CCNS(=O)(=O)c1ccc(Nc2ncc(F)c(Nc3ccc(OCc4cc(C)on4)cc3)n2)cc1` [Compound I-246, N2-[4-(2-N,N-Diethylaminoethyl)aminosulfonylphenyl)-5-fluoro-N4-[4-(5-methylisoxazol-3-yl)methyleneoxyphenyl]-2,4-pyrimidinediamine] to `Cc1noc(COc2ccc(Nc3nc(Nc4ccc(S(N)(=O)=O)cc4)ncc3F)cc2)n1` [Compound I-268, N2-(4-Aminosulfonylphenyl)-5-fluoro-N4-(4-[3-methyl-1,2,4-oxadiazol-5-yl]methyleneoxyphenyl)-2,4-pyrimidinediamine], the IC50 falls from 0.873 µM to 0.219 µM (4-fold).
